What was measured:
[1] = tested on: LPS-stimulated TNFα production in THP-1 cells; test: LPS-stimulated TNFα production inhibition test using human acute monocytic leukemia cell strain THP-1; assay type: cell-based; details: LPS 2.5 ng/mL, average values
Protocol: By the THP-1 assay, influence of a test compound on the TNFα production induced by LPS stimulation can be evaluated. The THP-1 cells (ATCC, Cat. TIB-202) were inoculated on a 96-well plate at a density of 1×10^5 cells/160 μL/well, a test compound was added in a volume of 20 μL, and the plate was incubated at 37° C. for 1 hour in a 5% CO2 incubator. Then, LPS in a volume of 20 μL (final concentration 2.5 ng/mL, Sigma, Cat. L2630) was added, and the plate was further incubated for 4 hours. After the incubation, the plate was centrifuged, and 100 μL of the supernatant was taken from each well, and used for evaluation of the amount of TNFα using HTRF (Cisbio, Cat. 62TNFPEB). In the measurement of the amount of TNFα, the supernatant was diluted twice with the medium, and then added to wells of a 384-well plate in a volume of 10 μL, then anti-TNFα-cryptate (5 μL), and anti-TNFα-XL665 (5 μL) were added, and the plate was left standing overnight. The fluorescence intensity ratio for the wavelengths of 620 and 665 nm (620 nm/665 nm) was measured with a microplate reader, and the amount of TNFα in the supernatant was calculated by using a calibration curve. The TNFα production suppression ratio observed with no addition of LPS was defined to be 100%, the TNFα production suppression ratio observed with no addition of the test compound was defined to be 0%, and IC50 of the test compound was calculated by using the 4-parameter logistic model of the data analysis software XLfit (ID Business Solutions Ltd.).

human IRAK-4 = human IRAK-4 (Homo sapiens (Human), UniProt Q9NWZ3); test: Measurement of human IRAK-4 inhibitory activity (TR-FRET, peptide substrate phosphorylation, 10 μM ATP); assay type: biochemical; details: 1 nM IRAK-4, 10 μM ATP, 23° C., 30 minutes; average values
Protocol: For the measurement of the activity of the human IRAK-4 (Invitrogen, Cat. PV3362), phosphorylation of the IRAK-4 peptide substrate (biotin-KKKKRFSFKKSFKC) by the enzyme in the presence of 10 μM ATP (Sigma-Aldrich, Cat. A7699) was measured by the TR-FRET method. The enzymatic reaction was performed in a reaction buffer containing 50 mM HEPES (pH 7.2), 1 mM DTT, 0.1 mM Na3VO4, 5 mM MgCl2, 1 mM MnCl2, and 0.1% bovine serum albumin. For the measurement of the IRAK-4 inhibitory activity, a test compound was added to the reaction buffer containing 1 nM IRAK-4, 0.5 μM peptide substrate, and 10 μM ATP, and the mixture was incubated at 23° C. for 30 minutes. Then, a detection solution containing an antibody labeled with europium cryptate (0.3 μg/mL, the antibody was prepared by using the IRAK-4 peptide substrate as the antigen), streptavidin-XL665 (2 μg/mL, CisBio, Cat. 610SAXLB), 50 mM HEPES (pH 7.2), 0.1% BSA, 120 mM KF, and 66.7 mM EDTA (all the concentrations of the reagents are final concentrations) was added to terminate the reaction, and then the mixture was further incubated at 23° C. for 60 minutes. Fluorescence intensity was measured at wavelengths of 665 nm and 620 nm with a microplate reader, and the enzymatic activity was calculated as the ratio of fluorescence intensities at 665 nm and 620 nm (665 nm/620 nm).

Chain of human IRAK-4 (Q9NWZ3 whole entry): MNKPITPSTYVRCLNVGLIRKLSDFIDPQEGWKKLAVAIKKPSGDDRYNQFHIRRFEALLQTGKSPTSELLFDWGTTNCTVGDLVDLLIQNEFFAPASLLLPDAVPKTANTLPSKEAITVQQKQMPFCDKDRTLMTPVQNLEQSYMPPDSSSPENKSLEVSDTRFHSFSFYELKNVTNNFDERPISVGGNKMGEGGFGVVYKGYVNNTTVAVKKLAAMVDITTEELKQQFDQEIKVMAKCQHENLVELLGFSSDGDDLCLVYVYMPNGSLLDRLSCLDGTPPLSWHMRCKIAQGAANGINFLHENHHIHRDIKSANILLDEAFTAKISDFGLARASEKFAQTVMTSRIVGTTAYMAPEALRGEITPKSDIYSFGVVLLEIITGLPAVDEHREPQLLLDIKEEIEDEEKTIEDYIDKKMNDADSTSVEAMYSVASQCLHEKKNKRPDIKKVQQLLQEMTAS

O=C(Nc1nc2ccc(-c3cnc(CO[C@H]4CCC[C@@H]4O)nc3)cc2s1)C1CC1 [a-01-01, N-(6-(2-((((1S,2S)-2-Hydroxycyclopentyl)oxy)methyl)pyrimidin-5-yl)benzo[d]thiazol-2-yl)cyclopropanecarboxamide]
IC50 ([1]; Homo sapiens, THP-1, 4 h): 121 nM | IC50 (human IRAK-4): 1.89 nM

O=C(Nc1nc2ccc(-c3cnc(CO[C@H]4CCC[C@@H]4O)nc3)cc2s1)[C@H]1C[C@H]1F [a-01-02]
IC50 ([1]; Homo sapiens, THP-1, 4 h): 180 nM | IC50 (human IRAK-4): 1.98 nM

O=C(Nc1nc2ccc(-c3cnc(CO[C@H]4CCC[C@@H]4O)nc3)cc2s1)[C@@H]1C[C@H]1F [a-01-03]
IC50 ([1]; Homo sapiens, THP-1, 4 h): 141 nM | IC50 (human IRAK-4): 2.69 nM

O=C(Nc1nc2ccc(-c3cnc(CO[C@H]4CCC[C@@H]4O)nc3)cc2s1)[C@@H]1C[C@@H]1F [a-01-04]
IC50 ([1]; Homo sapiens, THP-1, 4 h): 151 nM | IC50 (human IRAK-4): 1.73 nM

O=C(Nc1nc2ccc(-c3cnc(CO[C@H]4CCC[C@@H]4O)nc3)cc2s1)C1C[C@H]1c1cccnc1 (some centres unmarked) [a-01-05]
IC50 ([1]; Homo sapiens, THP-1, 4 h): 121 nM | IC50 (human IRAK-4): 2.08 nM

CO[C@H]1C[C@@H](C(=O)Nc2nc3ccc(-c4cnc(CO[C@H]5CCC[C@@H]5O)nc4)cc3s2)C1 [a-01-06]
IC50 ([1]; Homo sapiens, THP-1, 4 h): 170 nM

Cn1cc([C@@H]2CC2C(=O)Nc2nc3ccc(-c4cnc(CO[C@H]5CCC[C@@H]5O)nc4)cc3s2)cn1 (some centres unmarked) [a-01-07]
IC50 ([1]; Homo sapiens, THP-1, 4 h): 148 nM | IC50 (human IRAK-4): 1.73 nM

O=C(Nc1nc2ccc(-c3cnc(CO[C@H]4CCC[C@@H]4O)nc3)cc2s1)C1C[C@H]1c1ccncc1 (some centres unmarked) [a-01-08]
IC50 ([1]; Homo sapiens, THP-1, 4 h): 161 nM | IC50 (human IRAK-4): 2.66 nM

O=C(Nc1nc2ccc(-c3cnc(CO[C@H]4CCC[C@@H]4O)nc3)cc2s1)C1C[C@H]1C1CCOCC1 (some centres unmarked) [a-01-09]
IC50 ([1]; Homo sapiens, THP-1, 4 h): 140 nM | IC50 (human IRAK-4): 1.81 nM

COc1ccc([C@@H]2CC2C(=O)Nc2nc3ccc(-c4cnc(CO[C@H]5CCC[C@@H]5O)nc4)cc3s2)cc1 (some centres unmarked) [a-01-10]
IC50 ([1]; Homo sapiens, THP-1, 4 h): 678 nM | IC50 (human IRAK-4): 12.1 nM

O=C(Nc1nc2ccc(-c3cnc(CO[C@H]4CCC[C@@H]4O)nc3)c(Cl)c2s1)C1CC1 [a-01-11]
IC50 ([1]; Homo sapiens, THP-1, 4 h): 437 nM | IC50 (human IRAK-4): 7.89 nM

O=C(Nc1nc2ccc(-c3cnc(CO[C@H]4CCC[C@@H]4O)nc3)c(F)c2s1)C1CC1 [a-01-12]
IC50 ([1]; Homo sapiens, THP-1, 4 h): 361 nM | IC50 (human IRAK-4): 7.75 nM

CCCOCc1ncc(-c2ccc3nc(NC(=O)C4CC4)sc3c2)cn1 [a-02-01, N-(6-(2-(Propoxymethyl)pyrimidin-5-yl)benzo[d]thiazol-2-yl)cyclopropanecarboxamide]
IC50 ([1]; Homo sapiens, THP-1, 4 h): 330 nM | IC50 (human IRAK-4): 16.1 nM

O=C(Nc1nc2ccc(-c3cnc(CO[C@H]4CC(F)(F)C[C@@H]4O)nc3)cc2s1)C1CC1 [a-03-01, N-(6-(2-((((1 S,2S)-4,4-Difluoro-2-hydroxycyclopentyl)oxy)methyl)pyrimidin-5-yl)benzo[d]thiazol-2-yl)cyclopropanecarboxamide]
IC50 ([1]; Homo sapiens, THP-1, 4 h): 57 nM | IC50 (human IRAK-4): 1.41 nM

O=C(Nc1nc2ccc(-c3cnc(COC4CCCC4)nc3)cc2s1)C1CC1 [a-04-01, N-(6-(2-(Cyclopentoxymethyl)pyrimidin-5-yl)-1,3-benzo[d]thiazol-2-yl)cyclopropanecarboxamide]
IC50 ([1]; Homo sapiens, THP-1, 4 h): 261 nM | IC50 (human IRAK-4): 1.38 nM

O=C(Nc1nc2ccc(-c3cnc(COC4CCC4)nc3)cc2s1)C1CC1 [a-04-03]
IC50 ([1]; Homo sapiens, THP-1, 4 h): 355 nM | IC50 (human IRAK-4): 2.32 nM

O=C(Nc1nc2ccc(-c3cnc(COC4CC(F)(F)C4)nc3)cc2s1)C1CC1 [a-04-04]
IC50 ([1]; Homo sapiens, THP-1, 4 h): 444 nM | IC50 (human IRAK-4): 2.32 nM

O=C(Nc1nc2ccc(-c3cnc(COC[C@@H]4CCCO4)nc3)cc2s1)C1CC1 [a-05-01]
IC50 ([1]; Homo sapiens, THP-1, 4 h): 304 nM | IC50 (human IRAK-4): 7.81 nM

O=C(Nc1nc2ccc(-c3cnc(CO[C@H]4CCC[C@@H]4O)nc3)cc2s1)C1CC(N2CCOCC2)C1 (stereo partly drawn) [b-01-01, N-(6-(2-((((1S,2S)-2-Hydroxycyclopentyl)oxy)methyl)pyrimidin-5-yl)benzo[d]thiazol-2-yl)-3-moipholinocyclobutane-1-carboxamide]
IC50 ([1]; Homo sapiens, THP-1, 4 h): 154 nM | IC50 (human IRAK-4): 3.39 nM

O=C(Nc1nc2ccc(-c3cnc(CO[C@H]4CCC[C@@H]4O)nc3)cc2s1)C1CC(N2CC(F)C2)C1 (some centres unmarked) [b-01-02]
IC50 ([1]; 4 hours): 177 nM | IC50 (human IRAK-4): 3.33 nM

O=C(Nc1nc2ccc(-c3cnc(CO[C@H]4CCC[C@@H]4O)nc3)cc2s1)C1CC(N2CC[C@@H](F)C2)C1 (some centres unmarked) [b-02-01]
IC50 ([1]; Homo sapiens, THP-1, 4 h): 195 nM | IC50 (human IRAK-4): 3.16 nM

Source: US20240025893A1, “PYRIMIDINE-AND NITROGEN-CONTAINING BICYCLIC COMPOUND” (Asahi Kasei Pharma Corporation, priority 2020, published 2024)
